Test results: US11014911B2, “CDK2 inhibitors” (Pfizer Inc., priority 2019, dated 2021)

Key:
[1] = target: CDK2/Cyclin E1 full length (Homo sapiens (Human), UniProt P24941); assay: CDK2/Cyclin E1 full length mobility shift assay; type: biochemical
GSK3β (H350L) = GSK3β (H350L) (Homo sapiens (Human), UniProt P49841); settings: read-out: GSK3β Ki
Sequence of GSK3β (H350L) (P49841 whole entry, stated change not applied): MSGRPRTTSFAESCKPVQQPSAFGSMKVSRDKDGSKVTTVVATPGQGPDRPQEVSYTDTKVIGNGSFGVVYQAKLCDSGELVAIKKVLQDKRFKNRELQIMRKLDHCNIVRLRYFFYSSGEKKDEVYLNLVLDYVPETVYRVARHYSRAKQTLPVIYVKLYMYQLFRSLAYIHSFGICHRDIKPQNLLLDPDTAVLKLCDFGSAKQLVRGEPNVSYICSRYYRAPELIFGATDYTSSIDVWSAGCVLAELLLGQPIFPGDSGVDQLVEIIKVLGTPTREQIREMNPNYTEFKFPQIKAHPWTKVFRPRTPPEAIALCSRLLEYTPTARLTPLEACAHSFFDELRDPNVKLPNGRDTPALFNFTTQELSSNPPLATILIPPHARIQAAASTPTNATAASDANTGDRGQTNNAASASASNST
Description: The assay was initiated with the addition of ATP, following 15 minutes pre-incubation of enzyme and inhibitor at room temperature in the reaction mixture. The reaction was stopped after 30 minutes at room temperature by the addition of 50 μL of 80 mM EDTA.

SMILES	Ki [1] [nM]	Ki (GSK3β (H350L)) [nM]
CO[C@@H]1CN(C(=O)O[C@@H]2CC[C@H](c3cc(NC(=O)Cc4cc(C)no4)n[nH]3)C2)[C@H]1C [Example 618, (1R,3S)-3-(3-{[(3-methyl-1,2-oxazol-5-yl)acetyl]amino}-1H-pyrazol-5-yl)cyclopentyl (2S,3R)-3-methoxy-2-methylazetidine-1-carboxylate]	0.78	8.57
CC[C@H](C)NC(=O)O[C@@H]1CC[C@H](c2cc(NC(=O)c3ccnn3CCOC)n[nH]2)C1 [Example 51]	0.2	54
COc1ccc(CC(=O)Nc2cc([C@H]3CC[C@@H](OC(=O)NCC(F)F)C3)[nH]n2)cn1 [Example 252, (1R,3S)-3-(3-{[(6-methoxypyridin-3-yl)acetyl]amino}-1H-pyrazol-5-yl)cyclopentyl (2,2-difluoroethyl)carbamate]	1.39	10.6
CC[C@H](C)NC(=O)O[C@@H]1CC[C@H](c2cc(NC(=O)c3ccc(C)nc3)n[nH]2)C1 [Example 324, (1R,3S)-3-(3-{[(6-methylpyridin-3-yl)carbonyl]amino}-1H-pyrazol-5-yl)cyclopentyl (2S)-butan-2-ylcarbamate]	0.54	94.3
COc1cc(CC(=O)Nc2cc([C@@H]3CC[C@H](OC(=O)N4C[C@H](O)[C@H]4C)C3)[nH]n2)ccn1 [Example 611, (1S,3R)-3-(3-{[(2-methoxypyridin-4-yl)acetyl]amino}-1H-pyrazol-5-yl)cyclopentyl (2R,3S)-3-hydroxy-2-methylazetidine-1-carboxylate]	1.67	13.9
COCc1cc(C(=O)Nc2cc([C@H]3CC[C@@H](OC(=O)N[C@H](C)C4CC4)C3)[nH]n2)n(C)n1 [Example 105]	0.47	> 47.6
COc1ccc(CC(=O)Nc2cc([C@H]3CC[C@@H](OC(=O)N[C@H]4CC[C@@](C)(O)CC4)C3)[nH]n2)cc1 [Example 566, (1R,3S)-3-(3-{[(4-methoxyphenyl)acetyl]amino}-1H-pyrazol-5-yl)cyclopentyl (cis-4-hydroxy-4-methylcyclohexyl)carbamate]	0.79	37.6
CCCNC(=O)O[C@H]1CC[C@@H](c2cc(NC(=O)Cc3cnco3)n[nH]2)C1 [Example 166, (1S,3R)-3-{3-[(1,3-oxazol-5-ylacetyl)amino]-1H-pyrazol-5-yl}cyclopentyl propylcarbamate]	0.4	24.3
CCCNC(=O)O[C@H]1CC[C@@H](c2cc(NC(=O)Cc3ccc4[nH]c(C)nc4c3)n[nH]2)C1 [Example 23]	0.11	2.45
CC1(NC(=O)O[C@@H]2CC[C@H](c3cc(NC(=O)Cc4cc(Cl)ccn4)n[nH]3)C2)CC1 [Example 129]	0.2	31.6
Cc1ncc(CC(=O)Nc2cc([C@@H]3CC[C@H](OC(=O)N[C@H]4CC[C@](C)(O)CC4)C3)[nH]n2)s1 [Example 563, (1S,3R)-3-(3-{[(2-methyl-1,3-thiazol-5-yl)acetyl]amino}-1H-pyrazol-5-yl)cyclopentyl (trans-4-hydroxy-4-methylcyclohexyl)carbamate]	1.8	4.35
COc1cc(CC(=O)Nc2cc([C@H]3CC[C@@H](OC(=O)NC(C)C)C3)[nH]n2)ccn1 [Example 276, (1R,3S)-3-(3-{[(2-methoxypyridin-4-yl)acetyl]amino}-1H-pyrazol-5-yl)cyclopentyl propan-2-ylcarbamate]	0.64	33.1
COc1ccc(CC(=O)Nc2cc([C@H]3CC[C@@H](OC(=O)NCC(F)F)C3)[nH]n2)cc1 [Example 250, (1R,3S)-3-(3-{[(4-methoxyphenyl)acetyl]amino}-1H-pyrazol-5-yl)cyclopentyl (2,2-difluoroethyl)carbamate]	1.62	27.4
CC[C@H](C)NC(=O)O[C@H]1CC[C@@H](c2cc(NC(=O)Cc3ccno3)n[nH]2)C1 [Example 30]	0.16	20.6
CC[C@H](C)NC(=O)O[C@@H]1CC[C@H](c2cc(NC(=O)Cc3ccc(OC)nc3)n[nH]2)C1 [Example 346, (1R,3S)-3-(3-{[(6-methoxypyridin-3-yl)acetyl]amino}-1H-pyrazol-5-yl)cyclopentyl (2S)-butan-2-ylcarbamate]	0.26	10.7
Cn1nncc1C(=O)Nc1cc([C@H]2CC[C@@H](OC(=O)NC(C)(C)C)C2)[nH]n1 [Example 293, (1R,3S)-3-(3-{[(1-methyl-1H-1,2,3-triazol-5-yl)carbonyl]amino}-1H-pyrazol-5-yl)cyclopentyl tert-butylcarbamate]	0.85	> 95.3
CC[C@H](C)NC(=O)O[C@@H]1CC[C@H](c2cc(NC(=O)Cc3ccon3)n[nH]2)C1 [Example 323, (1R,3S)-3-{3-[(1,2-oxazol-3-ylacetyl)amino]-1H-pyrazol-5-yl}cyclopentyl (2S)-butan-2-ylcarbamate]	1.07	74.1

SMILES	Ki [1] [nM]	Ki (GSK3β (H350L)) [nM]
CC[C@H](C)CNC(=O)O[C@@H]1CC[C@H](c2cc(NC(=O)Cc3cnc(C)s3)n[nH]2)C1 [Example 417, (1R,3S)-3-(3-{[(2-methyl-1,3-thiazol-5-yl)acetyl]amino}-1H-pyrazol-5-yl)cyclopentyl [(2S)-2-methylbutyl]carbamate]	0.81	12.6
CCCNC(=O)O[C@@H]1CC[C@H](c2cc(NC(=O)Cc3ccc(OC)cn3)n[nH]2)C1 (stereo in doubt) [Example 187, (1R,3S)-3-(3-{[(5-methoxypyridin-2-yl)acetyl]amino}-1H-pyrazol-5-yl)cyclopentyl propylcarbamate]	4.59	23.9
COc1cc(CC(=O)Nc2cc([C@H]3CC[C@@H](OC(=O)NC(C)(C)C)C3)[nH]n2)c(OC)cn1 [Example 315, (1R,3S)-3-(3-{[(2,5-dimethoxypyridin-4-yl)acetyl]amino}-1H-pyrazol-5-yl)cyclopentyl tert-butylcarbamate]	0.65	133
CCCNC(=O)O[C@@H]1CC[C@H](c2cc(NC(=O)Cc3ccc(OC)cc3S(C)(=O)=O)n[nH]2)C1 [Example 212, (1R,3S)-3-[3-({[4-methoxy-2-(methylsulfonyl)phenyl]acetyl}amino)-1H-pyrazol-5-yl]cyclopentyl propylcarbamate]	0.67	77.2
CC1(NC(=O)O[C@@H]2CC[C@H](c3cc(NC(=O)Cc4ccno4)n[nH]3)C2)CCCC1 [Example 117]	0.14	15.9
Cc1cnc(CC(=O)Nc2cc([C@H]3CC[C@@H](OC(=O)NC4(C)CC4)C3)[nH]n2)cn1 [Example 428, (1R,3S)-3-(3-{[(5-methylpyrazin-2-yl)acetyl]amino}-1H-pyrazol-5-yl)cyclopentyl (1-methylcyclopropyl)carbamate]	0.4	30.1
Cc1cc(CC(=O)Nc2cc([C@H]3CC[C@@H](OC(=O)N4CCC4(C)C)C3)[nH]n2)on1 [Example 12, (1R,3S)-3-(3-{[(3-methyl-1,2-oxazol-5-yl)acetyl]amino}-1H-pyrazol-5-yl)cyclopentyl 2,2-dimethylazetidine-1-carboxylate]	0.13	4.86
COc1cc(CC(=O)Nc2cc([C@@H]3CC[C@H](OC(=O)N[C@H]4CC[C@@](C)(O)CC4)C3)[nH]n2)ccn1 [Example 568, (1S,3R)-3-(3-{[(2-methoxypyridin-4-yl)acetyl]amino}-1H-pyrazol-5-yl)cyclopentyl (cis-4-hydroxy-4-methylcyclohexyl)carbamate]	0.41	5.12
COCc1cc(C(=O)Nc2cc([C@H]3CC[C@@H](OC(=O)NC(C)(C)C)C3)[nH]n2)n(C)n1 [Example 111]	0.38	772
CCCNC(=O)O[C@H]1CC[C@@H](c2cc(NC(=O)c3ccc(C)nc3C)n[nH]2)C1 [Example 180, (1S,3R)-3-(3-{[(2,6-dimethylpyridin-3-yl)carbonyl]amino}-1H-pyrazol-5-yl)cyclopentyl propylcarbamate]	0.81	> 95.3
Cc1ncc(CC(=O)Nc2cc([C@H]3CC[C@@H](OC(=O)N4C[C@@](C)(O)[C@@H]4C)C3)[nH]n2)s1 [Example 623, (1R,3S)-3-(3-{[(2-methyl-1,3-thiazol-5-yl)acetyl]amino}-1H-pyrazol-5-yl)cyclopentyl (2S,3R)-3-hydroxy-2,3-dimethylazetidine-1-carboxylate]	1.17	6.31
COc1ccc(CC(=O)Nc2cc([C@H]3CC[C@@H](OC(=O)N4C[C@H](O)[C@H]4C)C3)[nH]n2)cn1 [Example 616, (1R,3S)-3-(3-{[(6-methoxypyridin-3-yl)acetyl]amino}-1H-pyrazol-5-yl)cyclopentyl (2R,3S)-3-hydroxy-2-methylazetidine-1-carboxylate]	0.28	4.05
CC[C@H](C)NC(=O)O[C@@H]1CC[C@H](c2cc(NC(=O)Cc3cc(C)on3)n[nH]2)C1 [Example 332, (1R,3S)-3-(3-{[(5-methyl-1,2-oxazol-3-yl)acetyl]amino}-1H-pyrazol-5-yl)cyclopentyl (2S)-butan-2-ylcarbamate]	1.05	61.3
Cc1cc(CC(=O)Nc2cc([C@H]3CC[C@@H](OC(=O)N4CCCC4(C)C)C3)[nH]n2)on1 [Example 134]	0.12	7.12
Cc1cc(CC(=O)Nc2cc([C@H]3CC[C@@H](OC(=O)N4CCOCC4(C)C)C3)[nH]n2)on1 [Example 649, (1R,3S)-3-(3-{[(3-methyl-1,2-oxazol-5-yl)acetyl]amino}-1H-pyrazol-5-yl)cyclopentyl 3,3-dimethylmorpholine-4-carboxylate]	0.31	9.2
CCCCNC(=O)O[C@H]1CC[C@@H](c2cc(NC(=O)Cc3ccno3)n[nH]2)C1 [Example 258, (1S,3R)-3-{3-[(1,2-oxazol-5-ylacetyl)amino]-1H-pyrazol-5-yl}cyclopentyl butylcarbamate]	0.74	10.7
C[C@H]1[C@H](O)CN1C(=O)O[C@@H]1CC[C@H](c2cc(NC(=O)Cc3cc(F)cc(F)c3)n[nH]2)C1 [Example 617, (1R,3S)-3-(3-{[(3,5-difluorophenyl)acetyl]amino}-1H-pyrazol-5-yl)cyclopentyl (2S,3R)-3-hydroxy-2-methylazetidine-1-carboxylate]	0.27	7.18
